Measurements published in patent US10981894B2, “Melanocortin subtype-2 receptor (MC2R) antagonists and uses thereof” (Crinetics Pharmaceuticals, Inc., priority 2018, dated 2021).

Biological target: hMC2 receptor (Homo sapiens, UniProt Q01718)
Test: hMC2 membrane binding assay ([125I]ACTH (1-39) Tyr23, SPA)
Parameters: scale not given here
Conditions: crude hMC2R membranes from CRE-bla-CHO-K1 cells expressing hMC2 receptor and hMRAP; [125I]ACTH (1-39) Tyr23 0.2 nM; 1.5 hours at room temperature; read-out: MC2R binding potency
Method in brief: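 CRE-bla-CHO-K1 membranes co-expressing hMC2 receptor and hMRAP, preincubated with WGA PVT SPA beads in pH 7.4 HEPES/MgCl2/CaCl2/0.2% BSA buffer. Compounds (typically 0–10,000 nM final) compete with 0.2 nM [125I]ACTH(1-39) Tyr23 for 1.5 h at room temperature. SPA counts give Ki by non-linear regression.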

Sequence of hMC2 receptor (Q01718 whole entry): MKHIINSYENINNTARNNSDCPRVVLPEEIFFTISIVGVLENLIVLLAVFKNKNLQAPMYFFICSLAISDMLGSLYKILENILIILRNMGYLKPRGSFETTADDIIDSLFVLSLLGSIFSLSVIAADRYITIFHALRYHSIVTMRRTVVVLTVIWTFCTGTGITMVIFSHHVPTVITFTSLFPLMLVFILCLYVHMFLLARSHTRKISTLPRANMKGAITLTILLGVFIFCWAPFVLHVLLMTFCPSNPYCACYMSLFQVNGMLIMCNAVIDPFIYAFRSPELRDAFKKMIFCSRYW
Sequence of hMC2 receptor (Q8TCY5 whole entry partner): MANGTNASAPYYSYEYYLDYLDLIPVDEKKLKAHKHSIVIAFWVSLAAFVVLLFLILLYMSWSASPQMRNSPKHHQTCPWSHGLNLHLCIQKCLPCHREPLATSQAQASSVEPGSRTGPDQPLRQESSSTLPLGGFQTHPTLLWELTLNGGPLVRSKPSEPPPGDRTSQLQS

| Structure (SMILES) | Ki [nM] |
| --- | --- |
| CCOc1ncccc1-c1ccc(N2CCN(C(=O)c3ccc(F)cc3Cl)C[C@H]2CC)c(C(=O)NCCNC)c1F [Compound 1-96, 6-[(2R)-4-(2-chloro-4-fluorobenzoyl)-2-ethylpiperazin-1-yl]-3-(2-ethoxypyridin-3-yl)-2-fluoro-N-[2-(methylamino)ethyl]benzamide] | < 10 |
| CCOc1ncccc1-c1ccc(N2CCN(C(=O)c3ccc(Cl)cc3C(F)(F)F)C[C@H]2CC)c(C(=O)NC[C@@H]2CCN2)c1 [Compound 1-97, N-{[(2S)-azetidin-2-yl]methyl}-2-[(2R)-4-[4-chloro-2-(trifluoromethyl)benzoyl]-2-ethylpiperazin-1-yl]-5-(2-ethoxypyridin-3-yl)benzamide] | < 10 |
| CCOc1ncccc1-c1ccc(N2CCN(C(=O)c3ccc(Cl)cc3C(F)(F)F)C[C@H]2CC)c(C(=O)NC[C@@H]2CCCN2)c1 [Compound 1-98, 2-[(2R)-4-[4-chloro-2-(trifluoromethyl)benzoyl]-2-ethylpiperazin-1-yl]-5-(2-ethoxypyridin-3-yl)-N-{[(2S)-pyrrolidin-2-yl]methyl}benzamide] | < 10 |
| CCOc1ncccc1-c1ccc(N2CCN(C(=O)c3ccc(Cl)cc3C(F)(F)F)C[C@H]2CC)c(C(=O)N[C@@H]2CCCNC2)c1 [Compound 1-99, 2-[(2R)-4-[4-chloro-2-(trifluoromethyl)benzoyl]-2-ethylpiperazin-1-yl]-5-(2-ethoxypyridin-3-yl)-N-[(3R)-piperidin-3-yl]benzamide] | < 10 |
| CCOc1ncccc1-c1ccc(N2CCN(C(=O)c3ccc(Cl)cc3C(F)(F)F)C[C@H]2CC)c(C(=O)N[C@H]2CCCNC2)c1 [Compound 1-100, 2-[(2R)-4-[4-chloro-2-(trifluoromethyl)benzoyl]-2-ethylpiperazin-1-yl]-5-(2-ethoxypyridin-3-yl)-N-[(3 S)-piperidin-3-yl]benzamide] | < 10 |
| CCOc1ncccc1-c1ccc(N2CCN(C(=O)c3ccc(F)cc3N3CC[C@H](NC)C3)C[C@H]2CC)c(C(=O)N[C@@H]2CCNC2)c1 [Compound 1-101, 5-(2-ethoxypyridin-3-yl)-2-[(2R)-2-ethyl-4-{4-fluoro-2-[(3S)-3-(methylamino)pyrrolidin-1-yl]benzoyl}piperazin-1-yl]-N-[(3R)-pyrrolidin-3-yl]benzamide] | < 10 |
| CCOc1ncccc1-c1ccc(N2CCN(C(=O)c3ccc(Cl)cc3C(F)(F)F)C[C@H]2CC)c(C(=O)NC[C@H]2CCN2)c1 [Compound 1-102, N-{[(2R)-azetidin-2-yl]methyl}-2-[(2R)-4-[4-chloro-2-(trifluoromethyl)benzoyl]-2-ethylpiperazin-1-yl]-5-(2-ethoxypyridin-3-yl)benzamide] | < 10 |
| CCOc1ncccc1-c1ccc(N2CCN(C(=O)c3ccc(C)cc3N3CCC(CN)C3)C[C@H]2CC)c(C(=O)NCCN)c1 (stereo partly drawn) [Compound 1-104, N-(2-aminoethyl)-2-[(2R)-4-{2-[3-(aminomethyl)pyrrolidin-1-yl]-4-methylbenzoyl}-2-ethylpiperazin-1-yl]-5-(2-ethoxypyridin-3-yl)benzamide] | < 10 |
| CCOc1ncccc1-c1ccc(N2CCN(C(=O)c3ccc(C(F)(F)F)cc3N(C)C)C[C@H]2CC)c(C(=O)NCCN)c1 [Compound 1-107, N-(2-aminoethyl)-2-[(2R)-4-[2-(dimethylamino)-4-(trifluoromethyl)benzoyl]-2-ethylpiperazin-1-yl]-5-(2-ethoxypyridin-3-yl)benzamide] | < 10 |
| CCOc1ncccc1-c1ccc(N2CCN(C(=O)c3ccc(Cl)cc3C(F)(F)F)C[C@H]2CC)c(C(=O)NC[C@H]2CCCN2)c1 [Compound 1-108, 2-[(2R)-4-[4-chloro-2-(trifluoromethyl)benzoyl]-2-ethylpiperazin-1-yl]-5-(2-ethoxypyridin-3-yl)-N-{[(2R)-pyrrolidin-2-yl]methyl}benzamide] | < 10 |
| CCOc1ncccc1-c1ccc(N2CCN(C(=O)c3ccc(Cl)cc3C(F)(F)F)C[C@H]2CC)c(C(=O)NC[C@@H]2CNCCO2)c1 [Compound 1-109, 2-[(2R)-4-[4-chloro-2-(trifluoromethyl)benzoyl]-2-ethylpiperazin-1-yl]-5-(2-ethoxypyridin-3-yl)-N-{[(2S)-morpholin-2-yl]methyl}benzamide] | < 10 |
| CCOc1ncccc1-c1ccc(N2CCN(C(=O)c3ccc(C)cc3Cl)C[C@H]2CC)c(C(=O)N[C@@H]2CCNC2)c1F [Compound 1-110, 6-[(2R)-4-(2-chloro-4-methylbenzoyl)-2-ethylpiperazin-1-yl]-3-(2-ethoxypyridin-3-yl)-2-fluoro-N-[(3R)-pyrrolidin-3-yl]benzamide] | < 10 |
| CCOc1ncccc1-c1ccc(N2CCN(C(=O)c3ccc(F)cc3C(F)(F)F)C[C@H]2CC)c(C(=O)N[C@@H]2CCNC2)c1F [Compound 1-111, 3-(2-ethoxypyridin-3-yl)-6-[(2R)-2-ethyl-4-[4-fluoro-2-(trifluoromethyl)benzoyl]piperazin-1-yl]-2-fluoro-N-[(3R)-pyrrolidin-3-yl]benzamide] | < 10 |
| CCOc1ncccc1-c1ccc(N2CCN(C(=O)c3ccc(Cl)cc3C(F)(F)F)C[C@H]2CC)c(C(=O)NC[C@@H]2CCN2)c1F [Compound 1-112, N-{[(2S)-azetidin-2-yl]methyl}-6-[(2R)-4-[4-chloro-2-(trifluoromethyl)benzoyl]-2-ethylpiperazin-1-yl]-3-(2-ethoxypyridin-3-yl)-2-fluorobenzamide] | < 10 |
| CCOc1ncccc1-c1ccc(N2CCN(C(=O)c3ccc(C)cc3Cl)C[C@H]2CC)c(C(=O)NCCNC)c1F [Compound 1-113, 6-[(2R)-4-(2-chloro-4-methylbenzoyl)-2-ethylpiperazin-1-yl]-3-(2-ethoxypyridin-3-yl)-2-fluoro-N-[2-(methylamino)ethyl]benzamide] | < 10 |
| CCOc1ncccc1-c1ccc(N2CCN(C(=O)c3ccc(F)cc3C(F)(F)F)C[C@H]2CC)c(C(=O)NCCNC)c1F [Compound 1-114, 3-(2-ethoxypyridin-3-yl)-6-[(2R)-2-ethyl-4-[4-fluoro-2-(trifluoromethyl)benzoyl]piperazin-1-yl]-2-fluoro-N-[2-(methylamino)ethyl]benzamide] | < 10 |
| CCOc1ncccc1-c1ccc(N2CCN(C(=O)c3ccc(Cl)cc3N3CC[C@H](N(C)C)C3)C[C@H]2CC)c(C(=O)N[C@@H]2CCNC2)c1 [Compound 1-115, 2-[(2R)-4-{4-chloro-2-[(3S)-3-(dimethylamino)pyrrolidin-1-yl]benzoyl}-2-ethylpiperazin-1-yl]-5-(2-ethoxypyridin-3-yl)-N-[(3R)-pyrrolidin-3-yl]benzamide] | < 10 |
| CCOc1ncccc1-c1ccc(N2CCN(C(=O)c3ccc(Cl)cc3C(F)(F)F)C[C@H]2CC)c(C(=O)NCCc2ncc[nH]2)c1F [Compound 1-116, 6-[(2R)-4-[4-chloro-2-(trifluoromethyl)benzoyl]-2-ethylpiperazin-1-yl]-3-(2-ethoxypyridin-3-yl)-2-fluoro-N-[2-(1H-imidazol-2-yl)ethyl]benzamide] | < 10 |
| CCOc1ncccc1-c1ccc(N2CCN(C(=O)c3ccc(Cl)cc3C#N)C[C@H]2CC)c(C(=O)NCCN)c1 [Compound 1-117, N-(2-aminoethyl)-2-[(2R)-4-(4-chloro-2-cyanobenzoyl)-2-ethylpiperazin-1-yl]-5-(2-ethoxypyridin-3-yl)benzamide] | < 10 |
| CCOc1ncccc1-c1ccc(N2CCN(C(=O)c3ccc(Cl)cc3C(F)(F)F)C[C@H]2CC)c(C(=O)NC[C@H]2CCN2)c1F [Compound 1-123, N-{[(2R)-azetidin-2-yl]methyl}-6-[(2R)-4-[4-chloro-2-(trifluoromethyl)benzoyl]-2-ethylpiperazin-1-yl]-3-(2-ethoxypyridin-3-yl)-2-fluorobenzamide] | < 10 |
| CCOc1ncccc1-c1ccc(N2CCN(C(=O)c3ccc(Cl)cc3C(F)(F)F)C[C@H]2CC)c(C(=O)NC[C@H]2CCCN2)c1F [Compound 1-124, 6-[(2R)-4-[4-chloro-2-(trifluoromethyl)benzoyl]-2-ethylpiperazin-1-yl]-3-(2-ethoxypyridin-3-yl)-2-fluoro-N-{[(2R)-pyrrolidin-2-yl]methyl}benzamide] | < 10 |
| CCOc1ncccc1-c1ccc(N2CCN(C(=O)c3ccc(Cl)cc3C(F)(F)F)C[C@H]2CC)c(C(=O)NCC2=NCCN2)c1 [Compound 1-125, 2-[(2R)-4-[4-chloro-2-(trifluoromethyl)benzoyl]-2-ethylpiperazin-1-yl]-N-[(4,5-dihydro-1H-imidazol-2-yl)methyl]-5-(2-ethoxypyridin-3-yl)benzamide] | < 10 |
| CCOc1ncccc1-c1ccc(N2CCN(C(=O)c3ccc(F)cc3C(F)(F)F)C[C@H]2CC)c(C(=O)NCCNC)n1 [Compound 1-136, 2′-ethoxy-5-[(2R)-2-ethyl-4-[4-fluoro-2-(trifluoromethyl)benzoyl]piperazin-1-yl]-N-[2-(methylamino)ethyl]-[2,3′-bipyridine]-6-carboxamide] | < 10 |
| CCOc1ccc(C(=O)N2CCN(c3ccc(-c4cccnc4OCC)nc3C(=O)NCCNC)[C@H](CC)C2)c(C(F)(F)F)c1 [Compound 1-137, 2′-ethoxy-5-[(2R)-4-[4-ethoxy-2-(trifluoromethyl)benzoyl]-2-ethylpiperazin-1-yl]-N-[2-(methylamino)ethyl]-[2,3′-bipyridine]-6-carboxamide] | < 10 |
| CCOc1ncccc1-c1ccc(N2CCN(C(=O)c3ccc(Cl)cc3C(F)(F)F)C[C@H]2CC)c(C(=O)NC[C@H]2COCCN2)c1 [Compound 1-138, 2-[(2R)-4-[4-chloro-2-(trifluoromethyl)benzoyl]-2-ethylpiperazin-1-yl]-5-(2-ethoxypyridin-3-yl)-N-{[(3S)-morpholin-3-yl]methyl}benzamide] | < 10 |
| CCOc1ncccc1-c1ccc(N2CCN(C(=O)c3ccc(Cl)cc3C#N)C[C@H]2CC)c(C(=O)N[C@@H]2CCNC2)c1 [Compound 1-142, 2-[(2R)-4-(4-chloro-2-cyanobenzoyl)-2-ethylpiperazin-1-yl]-5-(2-ethoxypyridin-3-yl)-N-[(3R)-pyrrolidin-3-yl]benzamide] | < 10 |
